Test [1] relates to infected GS3 embryos with the GAT construct. The experiment in a line: Glyphosate response of embryos infected with the GAT construct. It is filed as cell-based, maize. Conditions: about 40 days culture. Here is the method:
(§1) A glyphosate kill curve was established by testing non-transformed embryos response on media with different levels of glyphosate. GS3 embryos were isolated from an immature ear and placed onto media containing glyphosate at 0.0, 0.5, 1.0, and 2.0 mM. After about 40 days culture, the response of the embryos were observed and recorded. Similarly, infected GS3 embryos with the GAT construct were placed onto media containing glyphosate at 0.0, 0.5, 1.0, and 2.0 mM. After about 40 days culture, the response of the infected embryos were observed and recorded (FIG. 7).
(§2) Western or PCR analysis has confirmed that these resistant calli were transformed. Currently, GAT has performed consistently as an effective selectable marker with excellent transformation efficiency in both GS3 and introEF09B genotypes (FIG. 9 and Table 1).

The subject of test [2] is non-transformed GS3 embryos. The experiment in a line: Glyphosate kill curve on non-transformed embryos. It counts as cell-based, maize. The settings on record: about 40 days culture. How it is done:
as §1, §2

Molecules are shown by their SMILES.

On to `O=C(O)CNCP(=O)(O)O` [glyphosate], for which the embryo callus response is recorded as “more callus was grown” in test [1] (0.5 mM glyphosate in medium); “some embryos initiated resistant callus” in test [1] (1.0 mM glyphosate in medium); “some embryos initiated resistant callus” in test [1] (2.0 mM glyphosate in medium); “about half of the embryos” in test [2] (0.5 mM glyphosate in medium); “very little callus growth” in test [2] (1.0 mM glyphosate in medium); “very little callus growth” in test [2] (2.0 mM glyphosate in medium).

Values taken from patent US20070061917A1, “Methods and compositions for the expression of a polynucleotide of interest” (Pioneer Hi-Bred International, Inc., priority 2005, published 2007).
